Experimental data as given in ChEMBL document CHEMBL1201861, “Genomics of Drug Sensitity in Cancer screening data, Wellcome Trust Sanger Institute”.
pIC50: −log10 of the molar value.

Legend:
Assay in all cases: cells
EW-3 = assay type: functional, cell-based, Homo sapiens; conditions: Homo sapiens, EW-3;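 note: cell viability assay read-out, IC50 reflects inhibition of growth of the EW-3 cells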
Description: SANGER: Inhibition of human EW-3 cell growth in a cell viability assay.

BV-173 = assay type: functional, cell-based, Homo sapiens; conditions: Homo sapiens, BV-173
Description: SANGER: Inhibition of human BV-173 cell growth in a cell viability assay.

TE-11 = assay type: functional, cell-based, Homo sapiens; conditions: Homo sapiens, TE-11;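 note: growth inhibition of human TE-11 cells, read out by a cell viability assay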
Description: SANGER: Inhibition of human TE-11 cell growth in a cell viability assay.

NCI-H23 = assay type: functional, cell-based, Homo sapiens; conditions: Homo sapiens, NCI-H23;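 note: cell viability assay measuring growth inhibition of NCI-H23 cells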
Description: SANGER: Inhibition of human NCI-H23 cell growth in a cell viability assay.

K5 = assay type: functional, cell-based, Homo sapiens; conditions: Homo sapiens, K5
Description: SANGER: Inhibition of human K5 cell growth in a cell viability assay.

RCC10RGB = assay type: functional, cell-based, Homo sapiens; conditions: Homo sapiens, RCC10RGB;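 note: growth inhibition of human RCC10RGB cells, read out by a cell viability assay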
Description: SANGER: Inhibition of human RCC10RGB cell growth in a cell viability assay.

ES7 = assay type: functional, cell-based, Homo sapiens; conditions: Homo sapiens, ES7;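 note: growth inhibition of cultured human ES7 cells, read out as cell viability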
Description: SANGER: Inhibition of human ES7 cell growth in a cell viability assay.

LS-411N = assay type: functional, cell-based, Homo sapiens; conditions: Homo sapiens, LS-411N
DOHH-2 = assay type: functional, cell-based, Homo sapiens; conditions: Homo sapiens, DOHH-2;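 note: growth inhibition of human DOHH-2 cells, read out with a cell viability assay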
Description: SANGER: Inhibition of human DOHH-2 cell growth in a cell viability assay.

D-263MG = assay type: functional, cell-based, Homo sapiens; conditions: Homo sapiens, D-263MG
Description: SANGER: Inhibition of human D-263MG cell growth in a cell viability assay.

EW-11 = assay type: functional, cell-based, Homo sapiens; conditions: Homo sapiens, EW-11;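 note: growth inhibition of human EW-11 cells, measured with a cell viability assay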
Description: SANGER: Inhibition of human EW-11 cell growth in a cell viability assay.

SF-126 = assay type: functional, cell-based, Homo sapiens; conditions: Homo sapiens, SF-126;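 note: growth inhibition of human SF126 cells, read out with a cell viability assay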
Description: SANGER: Inhibition of human SF126 cell growth in a cell viability assay.

MC116 = assay type: functional, cell-based, Homo sapiens; conditions: Homo sapiens, MC116;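 note: growth inhibition of MC116 cells, read out with a cell viability assay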
Description: SANGER: Inhibition of human MC116 cell growth in a cell viability assay.

BB65-RCC = assay type: functional, cell-based, Homo sapiens; conditions: Homo sapiens, BB65-RCC;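 note: growth inhibition of the cell line, measured with a cell viability assay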
Description: SANGER: Inhibition of human BB65-RCC cell growth in a cell viability assay.

L-428 = assay type: functional, cell-based, Homo sapiens; conditions: Homo sapiens, L-428
Description: SANGER: Inhibition of human L-428 cell growth in a cell viability assay.

A704 = assay type: functional, cell-based, Homo sapiens; conditions: Homo sapiens, A704;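 note: growth inhibition of human A704 cells, read out with a cell viability assay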
Description: SANGER: Inhibition of human A704 cell growth in a cell viability assay.

TE-1 = assay type: functional, cell-based, Homo sapiens; conditions: Homo sapiens, TE-1
Description: SANGER: Inhibition of human TE-1 cell growth in a cell viability assay.

NCI-H747 = assay type: functional, cell-based, Homo sapiens; conditions: Homo sapiens, NCI-H747;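 note: growth inhibition of human NCI-H747 cells, read out by a cell viability assay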
Description: SANGER: Inhibition of human NCI-H747 cell growth in a cell viability assay.

SJSA-1 = assay type: functional, cell-based, Homo sapiens; conditions: Homo sapiens, SJSA-1;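 note: growth inhibition of human SJSA-1 cells, read out through a cell viability measurement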
Description: SANGER: Inhibition of human SJSA-1 cell growth in a cell viability assay.

HT-144 = assay type: functional, cell-based, Homo sapiens; conditions: Homo sapiens, HT-144
Description: SANGER: Inhibition of human HT-144 cell growth in a cell viability assay.

TK-10 = assay type: functional, cell-based, Homo sapiens; conditions: Homo sapiens, TK-10;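 note: growth inhibition of TK-10 cells, read out in a cell viability assay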
Description: SANGER: Inhibition of human TK10 cell growth in a cell viability assay.

RKO = assay type: functional, cell-based, Homo sapiens; conditions: Homo sapiens, RKO;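 note: growth inhibition of human RKO cells, read out with a cell viability assay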
Description: SANGER: Inhibition of human RKO cell growth in a cell viability assay.

RH-1 = assay type: functional, cell-based, Homo sapiens; conditions: Homo sapiens, RH-1;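 note: growth inhibition of human RH-1 cells, read out with a cell viability assay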
Description: SANGER: Inhibition of human RH-1 cell growth in a cell viability assay.

MLMA = assay type: functional, cell-based, Homo sapiens; conditions: Homo sapiens, MLMA;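 note: growth inhibition of MLMA cells (human), determined through a cell viability readout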
Description: SANGER: Inhibition of human MLMA cell growth in a cell viability assay.

COLO-800 = assay type: functional, cell-based, Homo sapiens; conditions: Homo sapiens, COLO-800;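 note: growth inhibition of COLO-800 cells, read out with a cell viability assay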
Description: SANGER: Inhibition of human COLO-800 cell growth in a cell viability assay.

OVCAR-4 = assay type: functional, cell-based, Homo sapiens; conditions: Homo sapiens, OVCAR-4;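 note: growth inhibition of human OVCAR-4 cells, measured with a cell viability assay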
Description: SANGER: Inhibition of human OVCAR-4 cell growth in a cell viability assay.

HT = assay type: functional, cell-based, Homo sapiens; conditions: Homo sapiens, HT
Description: SANGER: Inhibition of human HT cell growth in a cell viability assay.

KMOE-2 = assay type: functional, cell-based, Homo sapiens; conditions: Homo sapiens, KMOE-2;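 note: growth inhibition of human KMOE-2 cells, read out with a cell viability assay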
Description: SANGER: Inhibition of human KMOE-2 cell growth in a cell viability assay.

no-11 = assay type: functional, cell-based, Homo sapiens; conditions: Homo sapiens;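 note: growth inhibition of human NO-11 cells, read out with a cell viability assay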
Description: SANGER: Inhibition of human no-11 cell growth in a cell viability assay.

NCI-H1355 = assay type: functional, cell-based, Homo sapiens; conditions: Homo sapiens, NCI-H1355;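 note: growth inhibition of human NCI-H1355 cells, read out by a cell viability assay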
Description: SANGER: Inhibition of human NCI-H1355 cell growth in a cell viability assay.

HAL-01 = assay type: functional, cell-based, Homo sapiens; conditions: Homo sapiens, HAL-01;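 note: growth inhibition of human HAL-01 cells, read out with a cell viability assay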
Description: SANGER: Inhibition of human HAL-01 cell growth in a cell viability assay.

DMS-114 = assay type: functional, cell-based, Homo sapiens; conditions: Homo sapiens, DMS-114
A498 = assay type: functional, cell-based, Homo sapiens; conditions: Homo sapiens, A498;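 note: growth inhibition of human A498 cells, read out with a cell viability assay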
Description: SANGER: Inhibition of human A498 cell growth in a cell viability assay.

TE-10 = assay type: functional, cell-based, Homo sapiens; conditions: Homo sapiens, TE-10;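 note: growth inhibition of TE-10 cells, measured by a cell viability assay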
Description: SANGER: Inhibition of human TE-10 cell growth in a cell viability assay.

SK-LMS-1 = assay type: functional, cell-based, Homo sapiens; conditions: Homo sapiens, SK-LMS-1;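 note: growth inhibition of human SK-LMS-1 cells, read out with a cell viability assay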
Description: SANGER: Inhibition of human SK-LMS-1 cell growth in a cell viability assay.

LOX IMVI = assay type: functional, cell-based, Homo sapiens; conditions: Homo sapiens, LOX IMVI
Description: SANGER: Inhibition of human LOXIMVI cell growth in a cell viability assay.

C8166 = assay type: functional, cell-based, Homo sapiens; conditions: Homo sapiens, C8166;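 note: growth inhibition of human C8166 cells measured by a cell viability assay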
Description: SANGER: Inhibition of human C8166 cell growth in a cell viability assay.

NB12 = assay type: functional, cell-based, Homo sapiens; conditions: Homo sapiens, NB12;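 note: growth inhibition of human NB12 cells, read out by a cell viability assay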
Description: SANGER: Inhibition of human NB12 cell growth in a cell viability assay.

LNCaP-Clone-FGC = assay type: functional, cell-based, Homo sapiens; conditions: Homo sapiens, LNCaP-Clone-FGC
Description: SANGER: Inhibition of human LNCaP-Clone-FGC cell growth in a cell viability assay.

J-RT3-T3-5 = assay type: functional, cell-based, Homo sapiens; conditions: Homo sapiens, J-RT3-T3-5;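 note: cell viability assay measuring growth inhibition of human J-RT3-T3-5 cells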
Description: SANGER: Inhibition of human J-RT3-T3-5 cell growth in a cell viability assay.

LXF-289 cell line = assay type: functional, cell-based, Homo sapiens; conditions: Homo sapiens, LXF-289
Description: SANGER: Inhibition of human LXF-289 cell growth in a cell viability assay.

SNB-75 = assay type: functional, cell-based, Homo sapiens; conditions: Homo sapiens, SNB-75;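 note: cell viability assay measuring growth inhibition of human SNB-75 cells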
Description: SANGER: Inhibition of human SNB75 cell growth in a cell viability assay.

D-502MG = assay type: functional, cell-based, Homo sapiens; conditions: Homo sapiens, D-502MG
Description: SANGER: Inhibition of human D-502MG cell growth in a cell viability assay.

HD-MY-Z = assay type: functional, cell-based, Homo sapiens; conditions: Homo sapiens, HD-MY-Z;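 note: growth inhibition of HD-MY-Z cells, read out with a cell viability assay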
Description: SANGER: Inhibition of human HD-MY-Z cell growth in a cell viability assay.

NCI-H1092 = assay type: functional, cell-based, Homo sapiens; conditions: Homo sapiens, NCI-H1092;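 note: cell growth inhibition measured with a cell viability assay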
Description: SANGER: Inhibition of human NCI-H1092 cell growth in a cell viability assay.

EM-2 = assay type: functional, cell-based, Homo sapiens; conditions: Homo sapiens, EM-2;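 note: growth inhibition of EM-2 cells, read out with a cell viability assay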
Description: SANGER: Inhibition of human EM-2 cell growth in a cell viability assay.

Calu-6 = assay type: functional, cell-based, Homo sapiens; conditions: Homo sapiens, Calu-6;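 note: growth of human Calu-6 cells, read out by a cell viability assay, IC50 marking inhibition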
Description: SANGER: Inhibition of human Calu-6 cell growth in a cell viability assay.

MV4-11 = assay type: functional, cell-based, Homo sapiens, MV-4-11; conditions: Homo sapiens, MV4-11;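 note: cell viability readout measuring growth inhibition of human MV-4-11 cells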
Description: SANGER: Inhibition of human MV-4-11 cell growth in a cell viability assay.

With CO[C@H]1C[C@@H]2CC[C@@H](C)[C@@](O)(O2)C(=O)C(=O)N2CCCC[C@H]2C(=O)O[C@H]([C@H](C)C[C@@H]2CC[C@@H](OC(=O)C(C)(CO)CO)[C@H](OC)C2)CC(=O)[C@H](C)/C=C(\C)[C@@H](O)[C@@H](OC)C(=O)[C@H](C)C[C@H](C)/C=C/C=C/C=C/1C [TEMSIROLIMUS] the pIC50 (EW-3) was 7.31, the pIC50 (BV-173) was 7.36 and the pIC50 (TE-11) was under 6.70. For the same molecule, the pIC50 (NCI-H23) was under 6.70, the pIC50 (K5) was 8.88 and the pIC50 (RCC10RGB) was under 6.70. It also gave a pIC50 (ES7) of 7.07, a pIC50 (LS-411N) of under 6.70 and a pIC50 (DOHH-2) of 7.77. The pIC50 (D-263MG) was 6.80, the pIC50 (EW-11) was 7.81 and the pIC50 (SF-126) was 7.64. The pIC50 (MC116) was 7.59, the pIC50 (BB65-RCC) was 8.15 and the pIC50 (L-428) was under 6.70. It also gave a pIC50 (A704) of under 6.70, a pIC50 (TE-1) of under 6.70 and a pIC50 (NCI-H747) of under 6.70. It also gave a pIC50 (SJSA-1) of 6.84, a pIC50 (HT-144) of under 6.70 and a pIC50 (TK-10) of under 6.70. It also gave a pIC50 (RKO) of 6.87, a pIC50 (RH-1) of under 6.70 and a pIC50 (MLMA) of 8.48. The pIC50 (COLO-800) was 6.89, the pIC50 (OVCAR-4) was under 6.70 and the pIC50 (HT) was 7.56. The pIC50 (KMOE-2) was under 6.70, the pIC50 (no-11) was under 6.70 and the pIC50 (NCI-H1355) was 7.25. The pIC50 (HAL-01) was under 6.70, the pIC50 (DMS-114) was 6.92 and the pIC50 (A498) was under 6.70. The pIC50 (TE-10) was under 6.70, the pIC50 (SK-LMS-1) was under 6.70 and the pIC50 (LOX IMVI) was 6.92. For the same molecule, the pIC50 (C8166) was under 6.70, the pIC50 (NB12) was under 6.70 and the pIC50 (LNCaP-Clone-FGC) was 6.74. For the same molecule, the pIC50 (J-RT3-T3-5) was 7.91, the pIC50 (LXF-289 cell line) was 6.83 and the pIC50 (SNB-75) was under 6.70. The pIC50 (D-502MG) was under 6.70, the pIC50 (HD-MY-Z) was 7.67 and the pIC50 (NCI-H1092) was under 6.70. For the same molecule, the pIC50 (EM-2) was 7.27, the pIC50 (Calu-6) was under 6.70 and the pIC50 (MV4-11) was 7.72.

For CS(=O)(=O)c1ccc(C(=O)Nc2ccc(Cl)c(-c3ccccn3)c2)c(Cl)c1 [VISMODEGIB], the pIC50 (BV-173) was under 5.00, the pIC50 (TE-11) was under 5.00 and the pIC50 (NCI-H23) was under 5.00. The pIC50 (K5) was under 5.00, the pIC50 (RCC10RGB) was under 5.00 and the pIC50 (ES7) was under 5.00. The pIC50 (LS-411N) was under 5.00, the pIC50 (DOHH-2) was under 5.00 and the pIC50 (D-263MG) was under 5.00. It also gave a pIC50 (EW-11) of under 5.00, a pIC50 (SF-126) of under 5.00 and a pIC50 (MC116) of under 5.00. For the same molecule, the pIC50 (BB65-RCC) was under 5.00, the pIC50 (L-428) was under 5.00 and the pIC50 (A704) was under 5.00. For the same molecule, the pIC50 (TE-1) was under 5.00, the pIC50 (NCI-H747) was under 5.00 and the pIC50 (SJSA-1) was under 5.00. It also gave a pIC50 (HT-144) of under 5.00, a pIC50 (TK-10) of under 5.00 and a pIC50 (RKO) of under 5.00. The pIC50 (RH-1) was under 5.00, the pIC50 (MLMA) was under 5.00 and the pIC50 (COLO-800) was under 5.00. It also gave a pIC50 (OVCAR-4) of under 5.00, a pIC50 (HT) of under 5.00 and a pIC50 (KMOE-2) of under 5.00. The pIC50 (no-11) was under 5.00, the pIC50 (NCI-H1355) was under 5.00 and the pIC50 (HAL-01) was under 5.00. It also gave a pIC50 (DMS-114) of under 5.00, a pIC50 (A498) of under 5.00 and a pIC50 (TE-10) of under 5.00. The pIC50 (SK-LMS-1) was under 5.00, the pIC50 (LOX IMVI) was under 5.00 and the pIC50 (C8166) was under 5.00. It also gave a pIC50 (NB12) of under 5.00, a pIC50 (LNCaP-Clone-FGC) of under 5.00 and a pIC50 (J-RT3-T3-5) of under 5.00. The pIC50 (LXF-289 cell line) was under 5.00, the pIC50 (SNB-75) was under 5.00 and the pIC50 (D-502MG) was under 5.00. It also gave a pIC50 (HD-MY-Z) of under 5.00, a pIC50 (NCI-H1092) of under 5.00 and a pIC50 (EM-2) of under 5.00. The pIC50 (Calu-6) was under 5.00 and the pIC50 (MV4-11) was under 5.00.

C#Cc1cccc(Nc2ncnc3cc(OCCOC)c(OCCOC)cc23)c1 [ERLOTINIB] showed a pIC50 (EW-3) of under 5.70, a pIC50 (BV-173) of under 5.70 and a pIC50 (NCI-H23) of under 5.70. For the same molecule, the pIC50 (K5) was under 5.70, the pIC50 (RCC10RGB) was under 5.70 and the pIC50 (ES7) was under 5.70. The pIC50 (LS-411N) was under 5.70, the pIC50 (DOHH-2) was under 5.70 and the pIC50 (D-263MG) was under 5.70. For the same molecule, the pIC50 (EW-11) was under 5.70, the pIC50 (SF-126) was under 5.70 and the pIC50 (MC116) was under 5.70. The pIC50 (BB65-RCC) was under 5.70, the pIC50 (L-428) was under 5.70 and the pIC50 (TE-1) was 5.85. It also gave a pIC50 (NCI-H747) of under 5.70, a pIC50 (SJSA-1) of under 5.70 and a pIC50 (HT-144) of under 5.70. It also gave a pIC50 (TK-10) of 6.07, a pIC50 (RKO) of under 5.70 and a pIC50 (RH-1) of under 5.70. For the same molecule, the pIC50 (MLMA) was under 5.70, the pIC50 (COLO-800) was under 5.70 and the pIC50 (OVCAR-4) was under 5.70. It also gave a pIC50 (HT) of under 5.70, a pIC50 (KMOE-2) of under 5.70 and a pIC50 (no-11) of under 5.70. The pIC50 (NCI-H1355) was under 5.70, the pIC50 (HAL-01) was under 5.70 and the pIC50 (DMS-114) was under 5.70. It also gave a pIC50 (TE-10) of under 5.70, a pIC50 (SK-LMS-1) of under 5.70 and a pIC50 (LOX IMVI) of under 5.70. The pIC50 (C8166) was under 5.70, the pIC50 (NB12) was under 5.70 and the pIC50 (LNCaP-Clone-FGC) was under 5.70. The pIC50 (J-RT3-T3-5) was under 5.70, the pIC50 (LXF-289 cell line) was under 5.70 and the pIC50 (SNB-75) was under 5.70. For the same molecule, the pIC50 (D-502MG) was under 5.70, the pIC50 (HD-MY-Z) was under 5.70 and the pIC50 (NCI-H1092) was under 5.70. It also gave a pIC50 (EM-2) of under 5.70 and a pIC50 (Calu-6) of under 5.70.
